# Earlier results in US7459460B2, “Trisubstituted heteroaromatic compounds as calcium sensing receptor modulators” (Bristol-Myers Squibb Company, priority 2003, dated 2008).
# Key:
# [1] = postmenopausal women, placebo-controlled trial
# [2] = OVX rats, oral administration, in the presence of an anti-resorptive agent
# [3] = intravenous bolus injection
compound,measurement,setting,value
"PTH peptide fragment (1-34): the PTH peptide fragment (1-34) of parathyroid hormone (SVSEIQLMHNLGKHLNSMERVEWLRKKLQDVHNF; Parathyroid hormone; UniProt P01270 32-65, looked up, fragment)","reduce the risk of non-traumatic, non-spine fractures",[1],54%
same,reduce the risk of spine fractures,[1],65%
CC(C)(Cc1ccc2ccccc2c1)NC[C@@H](O)COc1cccc(Cl)c1C#N [NPS-2143],bone mass,[2],increase in bone mass
same,serum PTH,[3],transient increase in serum PTH
